Calls of active or inactive are those of the source. The calls are words filed in the database; no cut-off is given here.
Key:
[1] = target: T1, Speckle-type POZ protein-Bromodomain-containing protein 3 (Homo sapiens) (UniProt Q15059+O43791); assay: PROTAC activity at SPOP/BRD3 in human HT-29 cells assessed as induction of BRD3 degradation by measuring fold change at 1.25 uM incubated for 24 hrs by Western blot analysis (reference value: 1.00); type: cell-based
[2] = target: T1, Speckle-type POZ protein-Bromodomain-containing protein 3 (Homo sapiens); assay: PROTAC activity at SPOP/BRD3 in human HT-29 cells assessed as induction of BRD3 degradation by measuring fold change at 5 uM incubated for 24 hrs by Western blot analysis (reference value: 1.00); type: cell-based
[3] = target: T2, Speckle-type POZ protein-Bromodomain-containing protein 4 (Homo sapiens, UniProt O60885+O43791); assay: PROTAC activity at SPOP/BRD4-S in human HT-29 cells assessed as induction of BRD4 short isoform degradation at 0.5 to 5 uM incubated for 24 hrs by Western blotting analysis; type: cell-based; conditions: dose 0.5-5 µM
T2 sequence (O43791 whole entry, looked up, other chains not shown, canonical isoform): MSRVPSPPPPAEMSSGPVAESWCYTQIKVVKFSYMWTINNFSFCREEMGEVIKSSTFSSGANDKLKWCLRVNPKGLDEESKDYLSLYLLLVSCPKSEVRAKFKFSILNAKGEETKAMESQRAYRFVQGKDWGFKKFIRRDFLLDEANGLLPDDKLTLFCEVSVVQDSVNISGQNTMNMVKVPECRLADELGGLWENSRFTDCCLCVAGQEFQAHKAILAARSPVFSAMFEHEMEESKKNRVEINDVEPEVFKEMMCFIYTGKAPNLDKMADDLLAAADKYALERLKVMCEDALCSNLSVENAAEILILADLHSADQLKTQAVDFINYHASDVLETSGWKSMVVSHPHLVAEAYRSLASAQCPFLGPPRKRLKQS

[4] = target: T2, Speckle-type POZ protein-Bromodomain-containing protein 4; assay: PROTAC activity at SPOP/BRD4-S in human HT-29 cells assessed as induction of BRD4 short isoform degradation by measuring maximal efficacy at 0.156 to 10 uM incubated for 24 hrs by Western blotting analysis relative to control; type: cell-based; conditions: dose 0.156-10 µM
[5] = system: HEK293T; assay: Binding affinity to BRD4-L/GLP/SPOP in HEK293T cells assessed as compound-BRD4-GLP-SPOP quaternary complex formation at 20 to 100 uM incubated for 1 hrs by pulldown based Western blot analysis; type: cell-based; conditions: Homo sapiens, dose 20-100 µM
[6] = target: T2, Speckle-type POZ protein-Bromodomain-containing protein 4; assay: PROTAC activity at SPOP/BRD4-S in human HT-29 cells assessed as induction of BRD4 short isoform degradation at 5 uM preincubated with JQ1 for 2 hrs followed by compound addition and measured after 24 hrs by Western blot analysis; type: cell-based
[7] = target: T3, Histone-lysine N-methyltransferase EHMT1 (Homo sapiens, UniProt Q9H9B1); assay: Binding affinity to recombinant GLP-SET domain (unknown origin) assessed as assessed as dissociation constant by ITC analysis
T3 sequence (Q9H9B1 whole entry): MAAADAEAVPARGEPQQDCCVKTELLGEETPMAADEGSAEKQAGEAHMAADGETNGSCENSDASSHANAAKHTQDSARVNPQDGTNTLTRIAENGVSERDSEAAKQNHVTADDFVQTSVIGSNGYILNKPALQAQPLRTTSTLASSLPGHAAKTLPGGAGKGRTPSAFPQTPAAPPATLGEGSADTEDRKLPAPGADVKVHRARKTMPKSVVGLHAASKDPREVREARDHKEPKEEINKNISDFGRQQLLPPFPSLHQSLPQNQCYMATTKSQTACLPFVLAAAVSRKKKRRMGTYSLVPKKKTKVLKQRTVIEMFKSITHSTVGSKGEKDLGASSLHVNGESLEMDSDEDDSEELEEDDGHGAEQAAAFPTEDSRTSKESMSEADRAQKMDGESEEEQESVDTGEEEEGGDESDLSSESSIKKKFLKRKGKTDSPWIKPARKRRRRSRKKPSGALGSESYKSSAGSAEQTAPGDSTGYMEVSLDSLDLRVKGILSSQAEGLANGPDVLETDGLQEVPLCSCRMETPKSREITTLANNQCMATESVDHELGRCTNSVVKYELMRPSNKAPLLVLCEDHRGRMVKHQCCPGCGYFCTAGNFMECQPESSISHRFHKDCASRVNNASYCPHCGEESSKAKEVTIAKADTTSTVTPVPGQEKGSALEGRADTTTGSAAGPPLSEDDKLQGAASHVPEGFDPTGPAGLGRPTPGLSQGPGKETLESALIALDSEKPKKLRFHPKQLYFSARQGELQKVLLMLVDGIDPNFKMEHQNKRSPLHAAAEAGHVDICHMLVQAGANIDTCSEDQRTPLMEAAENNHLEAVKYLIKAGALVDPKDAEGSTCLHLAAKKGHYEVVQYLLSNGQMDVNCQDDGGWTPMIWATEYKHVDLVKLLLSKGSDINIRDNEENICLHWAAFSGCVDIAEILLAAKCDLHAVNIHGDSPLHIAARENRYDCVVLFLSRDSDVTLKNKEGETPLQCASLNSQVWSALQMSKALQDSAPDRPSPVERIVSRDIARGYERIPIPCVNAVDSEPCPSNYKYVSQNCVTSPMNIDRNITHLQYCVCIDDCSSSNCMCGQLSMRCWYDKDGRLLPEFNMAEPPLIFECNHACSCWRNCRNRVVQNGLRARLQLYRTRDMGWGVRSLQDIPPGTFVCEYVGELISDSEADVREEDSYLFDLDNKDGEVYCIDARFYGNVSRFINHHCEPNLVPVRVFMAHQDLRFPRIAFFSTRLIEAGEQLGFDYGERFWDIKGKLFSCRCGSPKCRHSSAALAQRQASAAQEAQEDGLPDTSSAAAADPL

[8] = target: T2, Speckle-type POZ protein-Bromodomain-containing protein 4; assay: PROTAC activity at SPOP/BRD4-L in human HT-29 cells assessed as induction of BRD4 long isoform degradation by measuring fold change at 0.313 uM incubated for 24 hrs by Western blotting analysis (reference value: 1.00); type: cell-based
[9] = target: T4, Bromodomain-containing protein 4 (Homo sapiens, UniProt O60885); assay: Binding affinity to BRD4-BD2 domain (unknown origin) assessed as assessed as dissociation constant by ITC analysis
[10] = target: T2, Speckle-type POZ protein-Bromodomain-containing protein 4; assay: PROTAC activity at SPOP/BRD4-L in human HT-29 cells assessed as induction of BRD4 long isoform degradation by measuring fold change at 0.625 uM incubated for 24 hrs by Western blotting analysis (reference value: 1.00); type: cell-based
[11] = target: T4, Bromodomain-containing protein 4; assay: Inhibition of BRD4 in human HT-29 cells assessed as decrease in c-MYC protein level by measuring fold change at 5 uM incubated for 24 hrs by Western blot analysis (reference value: 1.00); type: cell-based
[12] = target: T1, Speckle-type POZ protein-Bromodomain-containing protein 3 (Homo sapiens); assay: PROTAC activity at SPOP/BRD3 in human MDA-MB-231 cells assessed as induction of BRD3 degradation at 0.1 to 5 uM incubated for 24 hrs by Western blot analysis; type: cell-based; conditions: dose 0.1-5 µM
[13] = system: HT-29; assay: Effect on BRD2 mRNA level in human HT-29 cells at 1 to 10 uM incubated for 24 hrs by RT-qPCR analysis; type: functional, cell-based; conditions: dose 1-10 µM
[14] = target: T2, Speckle-type POZ protein-Bromodomain-containing protein 4; assay: PROTAC activity at SPOP/BRD4-L in human HT-29 cells assessed as induction of BRD4 long isoform degradation by measuring fold change at 0.156 uM incubated for 24 hrs by Western blotting analysis (reference value: 1.00); type: cell-based
[15] = target: T4, Bromodomain-containing protein 4; assay: Inhibition of BRD4 in human HT-29 cells assessed as decrease in c-MYC protein level by measuring fold change at 0.156 uM incubated for 24 hrs by Western blot analysis (reference value: 1.00); type: cell-based
[16] = target: T4, Bromodomain-containing protein 4; assay: Inhibition of BRD4 in human HT-29 cells assessed as decrease in c-MYC protein level by measuring fold change at 2.5 uM incubated for 24 hrs by Western blot analysis (reference value: 1.00); type: cell-based
[17] = target: T2, Speckle-type POZ protein-Bromodomain-containing protein 4; assay: PROTAC activity at SPOP/BRD4-L in human HT-29 cells assessed as induction of BRD4 long isoform degradation at 10 uM incubated for 24 hrs by Western blotting analysis relative to control; type: cell-based

T1 sequence (O43791 whole entry, looked up): as the sequence (O43791 whole entry, looked up, other chains not shown, canonical isoform) above
T1 sequence (Q15059 whole entry, looked up): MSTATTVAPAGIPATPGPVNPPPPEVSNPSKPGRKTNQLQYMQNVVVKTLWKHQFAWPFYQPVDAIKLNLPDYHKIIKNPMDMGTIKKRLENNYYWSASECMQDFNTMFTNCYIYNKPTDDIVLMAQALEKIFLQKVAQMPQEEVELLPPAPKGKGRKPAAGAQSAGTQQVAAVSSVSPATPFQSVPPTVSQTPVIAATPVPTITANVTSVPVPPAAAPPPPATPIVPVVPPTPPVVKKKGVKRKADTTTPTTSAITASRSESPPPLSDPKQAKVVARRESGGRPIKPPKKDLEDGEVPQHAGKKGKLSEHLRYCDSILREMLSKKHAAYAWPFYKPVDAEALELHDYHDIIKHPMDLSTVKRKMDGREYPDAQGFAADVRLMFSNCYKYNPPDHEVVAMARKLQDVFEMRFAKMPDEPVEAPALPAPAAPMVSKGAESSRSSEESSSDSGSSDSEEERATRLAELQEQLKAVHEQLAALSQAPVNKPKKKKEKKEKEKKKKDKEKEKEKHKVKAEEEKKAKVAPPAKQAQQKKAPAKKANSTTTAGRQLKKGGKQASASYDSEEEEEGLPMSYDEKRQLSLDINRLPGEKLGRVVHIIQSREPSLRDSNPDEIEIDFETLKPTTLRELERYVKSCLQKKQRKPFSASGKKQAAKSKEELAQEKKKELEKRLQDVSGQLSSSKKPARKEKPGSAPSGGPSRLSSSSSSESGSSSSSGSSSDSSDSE

fold change (FC) [1]: 0.7
fold change (FC) [2]: 0.6
Activity [3]: Active
Emax [4]: 63%
Activity [6]: inactive
Kd [7]: 306 nM
fold change (FC) [8]: 1.3
Kd [9]: 200 nM
fold change (FC) [10]: 1.2
fold change (FC) [11]: 0.03
Activity [12]: Active
fold change (FC) [14]: 1.2
fold change (FC) [15]: 1
fold change (FC) [16]: 0.1
Activity [17]: 50%
Structure (SMILES): COc1cc2c(NC3CCN(CCCC(=O)NCCCCCCCCCCNC(=O)C[C@@H]4N=C(c5ccc(Cl)cc5)c5c(sc(C)c5C)-n5c(C)nnc54)CC3)cc(N3CCOCC3)nc2cc1OCCCN1CCCC1
Activity [5]: Active
Activity [13]: inactive

From ChEMBL document CHEMBL6109152, “Harnessing the SPOP E3 Ubiquitin Ligase via a Bridged Proteolysis Targeting Chimera (PROTAC) Strategy for Targeted Protein Degradation” (J Med Chem, 2025)
